From ChEMBL document CHEMBL1128353, “A novel approach to dual-acting thromboxane receptor antagonist/synthase inhibitors based on the link of 1,3-dioxane-thromboxane receptor antagonists and -thromboxane synthase inhibitors” (J Med Chem, 1995) come the findings set out here.

Molecules are shown by their SMILES. Bounds are passed on as bounds.

One test concerns the target T1, Thromboxane-A synthase (Homo sapiens, UniProt P24557).
T1 sequence (P24557 whole entry): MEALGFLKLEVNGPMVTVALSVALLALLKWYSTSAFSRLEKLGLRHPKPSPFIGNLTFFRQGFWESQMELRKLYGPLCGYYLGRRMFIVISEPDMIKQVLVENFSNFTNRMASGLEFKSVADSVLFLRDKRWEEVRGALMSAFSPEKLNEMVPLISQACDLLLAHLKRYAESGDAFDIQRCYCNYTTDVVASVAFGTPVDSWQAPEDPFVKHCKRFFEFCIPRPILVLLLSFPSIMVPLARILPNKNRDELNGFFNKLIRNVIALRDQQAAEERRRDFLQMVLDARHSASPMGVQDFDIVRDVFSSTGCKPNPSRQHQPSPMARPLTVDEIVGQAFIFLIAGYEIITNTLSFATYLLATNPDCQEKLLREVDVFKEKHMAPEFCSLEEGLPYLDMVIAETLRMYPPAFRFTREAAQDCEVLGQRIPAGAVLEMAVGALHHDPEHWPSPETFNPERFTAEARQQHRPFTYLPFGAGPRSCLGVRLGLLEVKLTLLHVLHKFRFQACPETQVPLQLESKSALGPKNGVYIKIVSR
In words: In vitro inhibitory activity against human microsomal thromboxane synthase.

Another test is filed under the species Homo sapiens. As to the kind of experiment: Antagonistic activity against human platelet aggregation induced by U-46,619. Format: functional, organism-based. Conditions: read-out: pA2 (converted).
In test [1] the test system is Canis familiaris. In words: Compound at an oral dose of 1 mg/Kg was tested ex vivo after 5 hr for inhibition of thromboxane synthase in dog. In kind it is functional. The note with it: Canis lupus familiaris.
The subject of test [2] is Canis familiaris. In words: Compound at an oral dose of 1 mg/Kg was tested ex vivo after 1 hr for inhibition of thromboxane synthase in dog. In kind it is functional. The note with it: Canis lupus familiaris.
The test system of test [3] is Canis familiaris. In words: Compound at an oral dose of 1 mg/Kg was tested ex vivo after 3 hr for inhibition of thromboxane synthase in dog. Format: functional. Conditions: Canis lupus familiaris.
Test [4] has as its system Rattus norvegicus. As to the kind of experiment: Compound at an oral dose of 10 mg/Kg was tested ex vivo after 1 hr for inhibition of thromboxane synthase in rat. In kind it is functional.
Test [5] relates to Rattus norvegicus. In words: Compound at an oral dose of 10 mg/Kg was tested ex vivo after 5 hr for inhibition of thromboxane synthase in rat. Format: functional.
Test [6] concerns Rattus norvegicus. As to the kind of experiment: Compound at an oral dose of 10 mg/Kg was tested ex vivo after 3 hr for inhibition of thromboxane synthase in rat. In kind it is functional.
Test [7] has as its system Rattus norvegicus. As to the kind of experiment: Compound at an oral dose of 10 mg/Kg was tested ex vivo in rat after 5 hr against platelet aggregation induced by U-46,619. Format: functional, organism-based. The note with it: read-out: pA2 (converted).

By IC50 is commonly meant the concentration needed to halve the response being measured. A lower IC50 goes with higher potency. In turn, `O=C(O)CC/C=C\C[C@@H]1CO[C@H](c2ccc(COc3cccc(/C(=C\CCCCC(=O)O)c4cccnc4)c3)cc2)O[C@@H]1c1ccccc1O` returned an IC50 on Thromboxane-A synthase of 0.01 µM. Moreover, in the test listed under Homo sapiens, the Kb was 0.1 µM.
Compound `O=C(O)CC/C=C\C[C@@H]1CO[C@H](c2cccc(OCCOc3cc(C(=O)O)ccc3OCCn3ccnc3)c2)O[C@@H]1c1ccccc1O` displayed an IC50 at Thromboxane-A synthase of 0.03 µM. The Kb in the test filed under Homo sapiens is 0.158 µM.
As usually defined, the inhibition in vivo is the drop in the measured response relative to a control, in per cent. With `O=C(O)CCCC/C=C(\c1ccccc1)c1cccnc1` [(E)-ISBOGREL], the inhibition in vivo at 1 mg/kg in the test on Canis familiaris [1] amounted to 82%; with Canis familiaris [2], 93%; in the test with Canis familiaris [3], 83%. In addition, the inhibition in vivo at 10 mg/kg with Rattus norvegicus [4] is 97%; with Rattus norvegicus [5] it was 87%; with Rattus norvegicus [6], 97%. The Kb in the test filed under Homo sapiens is above 10 µM.
In the case of `O=C(O)CC/C=C\C[C@@H]1CO[C@H](CCCCCCCCCCOc2ccc(/C(=C\CCCCC(=O)O)c3cccnc3)cc2)O[C@@H]1c1ccccc1O`, at Thromboxane-A synthase, the IC50 is 0.04 µM. Moreover, the Kb in the test filed under Homo sapiens is 2.51 µM.
In the same order, the values of `O=C(O)CC/C=C\C[C@@H]1CO[C@H](c2ccc(OCCOc3cc(C(=O)O)ccc3OCCn3ccnc3)cc2)O[C@@H]1c1ccccc1O` are 0.06 µM and 0.501 µM.
For `O=C(O)CC/C=C\C[C@@H]1CO[C@H](CCCCCOc2cc(C(=O)O)ccc2OCCn2ccnc2)O[C@@H]1c1ccccc1O` the same measures were 0.06 µM and 1.26 µM.
For `O=C(O)CC/C=C\C[C@@H]1CO[C@H](c2cncc(/C(=C/CCCCC(=O)O)c3ccccc3)c2)O[C@@H]1c1ccccc1O` the same measures were above 10 µM and 0.0398 µM.
Compound `O=C(O)CC/C=C\C[C@@H]1CO[C@H](c2cncc(/C(=C\CCCCC(=O)O)c3ccccc3)c2)O[C@@H]1c1ccccc1O` registered an IC50 on Thromboxane-A synthase above 10 µM. For the same compound, the Kb in the test listed under Homo sapiens is 0.0251 µM.
For the compound `O=C(O)CC/C=C\C[C@@H]1CO[C@H](c2ccc(/C(=C\CCCCC(=O)O)c3cccnc3)cc2)O[C@@H]1c1ccccc1O`, at Thromboxane-A synthase, the IC50 was found to be 0.04 µM. Moreover, the Kb in the test filed under Homo sapiens was 0.1 µM.
In the same order, the values of `O=C(O)CC/C=C\C[C@@H]1CO[C@H](c2ccc(COc3ccc(/C(=C\CCCCC(=O)O)c4cccnc4)cc3)cc2)O[C@@H]1c1ccccc1O` are 0.02 µM and 0.2 µM.
Take `O=C(O)CC/C=C\C[C@@H]1CO[C@H](c2ccccc2Cl)O[C@@H]1c1ccccc1O`: the Kb is 0.1 µM in the test with Rattus norvegicus [7] and 0.00316 µM in the test listed under Homo sapiens. This compound also displayed an IC50 at Thromboxane-A synthase above 100 µM.
`O=C(O)CC/C=C\C[C@@H]1CO[C@H](c2ccc(OCCOc3ccc(/C(=C\CCCCC(=O)O)c4cccnc4)cc3)cc2)O[C@@H]1c1ccccc1O` showed an IC50 on Thromboxane-A synthase of 0.05 µM. The Kb in the test filed under Homo sapiens is 0.631 µM.
For `CC(C)(c1ccc(/C(=C\CCCCC(=O)O)c2cccnc2)cc1)[C@H]1OC[C@@H](C/C=C\CCC(=O)O)[C@@H](c2ccccc2O)O1` the same measures were 0.03 µM and 0.251 µM.
In the same order, the values of `O=C(O)CC/C=C\C[C@@H]1CO[C@H](c2cccc(OCCCCCCOc3ccc(/C(=C\CCCCC(=O)O)c4cccnc4)cc3)c2)O[C@@H]1c1ccccc1O` are 0.07 µM and 0.1 µM.
In the same order, the values of `CC(C)(CCCCCc1ccc(/C(=C\CCCCC(=O)O)c2cccnc2)cc1)[C@H]1OC[C@@H](C/C=C\CCC(=O)O)[C@@H](c2ccccc2O)O1` are 0.01 µM and 0.501 µM.
`O=C(O)CC/C=C\C[C@@H]1CO[C@H](COc2cc(C(=O)O)ccc2OCCn2ccnc2)O[C@@H]1c1ccccc1O` yielded an IC50 against Thromboxane-A synthase of 1.7 µM. In the test filed under Homo sapiens, the Kb is 3.16 µM.
In the case of `O=C(O)CC/C=C\C[C@@H]1CO[C@H](c2ccc(OCCn3ccnc3)c(C(=O)O)c2)O[C@@H]1c1ccccc1O`, at Thromboxane-A synthase, the IC50 stood at 3.8 µM. For the same compound, the Kb in the test listed under Homo sapiens is 1.26 µM.
Regarding `O=C(O)c1ccc(OCCn2ccnc2)cc1` [DAZOXIBEN], the inhibition in vivo at 1 mg/kg is 77% in the test with Canis familiaris [1], 73% with Canis familiaris [2] and 91% in the test on Canis familiaris [3]. Besides, the inhibition in vivo at 10 mg/kg with Rattus norvegicus [4] was found to be 86%; in the test with Rattus norvegicus [6], 87%. In the test filed under Homo sapiens, the Kb is above 10 µM.
With `O=C(O)CC/C=C\C[C@@H]1CO[C@H](c2ccccc2OCCOc2cc(C(=O)O)ccc2OCCn2ccnc2)O[C@@H]1c1ccccc1O`, half-maximal inhibition against Thromboxane-A synthase (IC50) was put at 0.03 µM. Moreover, the Kb in the test listed under Homo sapiens was 1.26 µM.
In the same order, the values of `O=C(O)CC/C=C\C[C@@H]1CO[C@H](CCCCCOc2ccc(/C(=C\CCCCC(=O)O)c3cccnc3)cc2)O[C@@H]1c1ccccc1O` are 0.01 µM and 0.2 µM.
In the same order, the values of `O=C(O)CC/C=C\C[C@@H]1CO[C@H](c2ccc3cc(/C(=C\CCCCC(=O)O)c4cccnc4)ccc3c2)O[C@@H]1c1ccccc1O` are 0.05 µM and 0.251 µM.
In the case of `O=C(O)CC/C=C\C[C@@H]1CO[C@H](C(CCC/C=C(/c2ccccc2)c2cccnc2)C(=O)O)O[C@@H]1c1ccccc1O` (stereo partly drawn), the IC50 on Thromboxane-A synthase was found to be 0.04 µM. Also, the Kb in the test listed under Homo sapiens is above 10 µM.
In the same order, the values of `O=C(O)CC/C=C\C[C@@H]1CO[C@H](c2cccc(OCCOc3ccc(/C(=C\CCCCC(=O)O)c4cccnc4)cc3)c2)O[C@@H]1c1ccccc1O` are 0.04 µM and 0.794 µM.
In the case of `O=C(O)CC/C=C\C[C@@H]1CO[C@H](c2ccccc2OCCOc2ccc(/C(=C\CCCCC(=O)O)c3cccnc3)cc2)O[C@@H]1c1ccccc1O`, the IC50 on Thromboxane-A synthase turned out to be 0.03 µM. Besides, the Kb in the test filed under Homo sapiens is 0.158 µM.
In the same order, the values of `O=C(O)CC/C=C\C[C@@H]1CO[C@H](CCOc2ccc(/C(=C\CCCCC(=O)O)c3cccnc3)cc2)O[C@@H]1c1ccccc1O` are 0.03 µM and 0.2 µM.
Turning to `CC(C)(CCCCOc1ccc(/C(=C\CCCCC(=O)O)c2cccnc2)cc1)[C@H]1OC[C@@H](C/C=C\CCC(=O)O)[C@@H](c2ccccc2O)O1`, the IC50 against Thromboxane-A synthase came to 0.03 µM. Also, the Kb in the test filed under Homo sapiens was 0.251 µM.
`O=C(O)CC/C=C\C[C@@H]1CO[C@H](c2ccc(OCCCCCCOc3cc(C(=O)O)ccc3OCCn3ccnc3)cc2)O[C@@H]1c1ccccc1O` returned an IC50 on Thromboxane-A synthase of 0.04 µM. Besides, in the test filed under Homo sapiens, the Kb was 0.158 µM.
For `O=C(O)CC/C=C\C[C@@H]1CO[C@H](c2ccc(CCOc3ccc(/C(=C\CCCCC(=O)O)c4cccnc4)cc3)cc2)O[C@@H]1c1ccccc1O` the same measures were 0.05 µM and 0.631 µM.
`O=C(O)CC/C=C\C[C@@H]1CO[C@H](c2cccc(COc3ccc(/C(=C\CCCCC(=O)O)c4cccnc4)cc3)c2)O[C@@H]1c1ccccc1O` showed an IC50 at Thromboxane-A synthase of 0.04 µM. For the same compound, the Kb in the test listed under Homo sapiens was 0.2 µM.
